# Test results from US12600925B2, “Laundry sanitizing and softening compositions” (Reckitt Benckiser LLC, priority 2023, dated 2026).
# Test system: Staphylococcus epidermidis
# Experiment: Minimum inhibitory concentration, BKC / polymer synergy, 96-well microtiter
# Type: cell-based
# Settings: second test (lower line of each polymer); 24 h, 37° C.; 100% active
# Procedure: Take well-defined and typical colonies of Staphylococcus epidermidis from a recent plate of tryptic soy agar (TSA), dissolve and vortex them in a tube containing 30 mL of tryptic soy broth (TSB) and incubate for 17+/−1h at 37° C.+/−1° C. Quantify by plate count in TSA (incubated for 48h+/−1h at 37° C.+/−1° C.). Use the broth culture suspension within seven (7) days after the incubation period. Vortex and take 0.2 mL from the broth culture and dilute in appropriate volume of 0.85% NaCl to normalize the strain at 3-5×10^5 CFU/mL Using a micropipette, add 100 μL of TSB in a 96-well microtiter plate format. […] (both samples are the same) Using a micropipette take 100 μL of the sample from column 2 and dilute it in column 3 performing a 1:1 dilution with the diluent already present in the wells, proceeding with a serial dilution up to column 9. Discard the remaining 100 μL. […] Dispense 100 μL of inoculum using a micropipette into each well in columns 2 to 10. Columns 1 and 11 are the sample sterility test and negative test control columns, respectively. No growth should be observed in these columns. Column 10 is the positive test control and growth should be observed. […] Incubate the microwell plate for 24h+/−1h at 37° C.+/−1° C. The minimum inhibitory concentration (MIC) is determined by visually checking the wells for growth. […]
substance,measurement,value
C12-16 alkyldimethylbenzylammonium chloride [BKC],BKC MIC in ppm alone,0.3-0.8 ppm
